Assay results: ChEMBL document CHEMBL6182916, “Unexpected Discovery of a Novel Triphenylphosphonium Alkylalcohol That Triggers Cancer Cell Death via Mitophagy and Ferroptosis” (J Med Chem, 2025)
pIC50: −log10 of the molar value. Active and inactive are the calls of the source. The calls are words filed in the database; no cut-off is given here.

Key:
HCC827 [1] = test: Induction of mitochondrial dysfunction in human HCC827 cells assessed as cristae reduction by TEM analysis; format: functional, cell-based
HCC827 [2] = test: Effect on UQCRC2 expression in human HCC827 cells at 0.25 to 0.5 uM; format: functional, cell-based; conditions: dose 0.25-0.5 µM
HCC827 [3] = test: Induction of apoptosis in human HCC827 cells assessed as early apoptotic cells at 1 uM measured after 36 hrs by annexin V and PI staining based flow cytometry analysis (reference value: 1.80%); format: functional
Mitochondrial membrane [4] = test: Induction of mitochondrial membrane depolarization in human HCC827 cells assessed as increase green fluorescence intensity at 0.125 to 0.5 uM incubated for 4 hrs by rhodamine 123 staining based confocal microscopy analysis; format: cell membranes; conditions: dose 0.125-0.5 µM
HCC827 [5] = test: Upregulation of parkin phosphorylation level in human HCC827 cells at 0.25 to 0.5 uM measured after 24 hrs; format: functional, cell-based; conditions: dose 0.25-0.5 µM
BEAS-2B = test: Induction of mitochondrial dysfunction in human BEAS-2B cells assessed as reduction in glycolytic capacity at 0.125 to 5 uM incubated for 4 hrs by Seahorse XF96 extracellular flux analyzer; format: functional, cell-based; conditions: dose 0.125-5 µM
[6] = Toxicity in male Kunming mouse assessed as animal death at 70 mg/kg, ip measured every two days for 7 days; format: organism-based; conditions: in vivo, 168 h, time 7 day
HCT-116 = test: Antiproliferative activity against human HCT-116 cells assessed as inhibition of cell growth measured after 72 hrs by MTT assay; format: functional, cell-based; conditions: HCT-116, 72 h
HCC827 [7] = test: Downregulation of […] protein level in human HCC827 cells at 0.25 to 0.5 uM measured after 12 hrs; format: functional, cell-based; conditions: dose 0.25-0.5 µM
Mitochondrial membrane [8] = test: Induction of mitochondrial membrane depolarization in HEK293T cells assessed as JC-1 monomer ratio by measuring increase green fluorescence at 0.25 uM incubated for 4 hrs by JC-1 staining based confocal microscopy analysis; format: cell membranes; conditions: Homo sapiens
HCC827 [9] = test: Induction of apoptosis in human HCC827 cells assessed as early apoptotic cells at 1 uM measured after 48 hrs by annexin V and PI staining based flow cytometry analysis (reference value: 0.70%); format: functional
Mitochondrial membrane [10] = test: Induction of mitochondrial membrane depolarization in human HCC827 cells assessed as increase green fluorescence incubated for 4 hrs by JC-1 staining based confocal microscopy analysis; format: cell membranes; conditions: dose 0.125-0.5 µM
HCC827 [11] = test: Induction of ferroptosis in human HCC827 cells assessed as increase in lipid peroxidation level incubated for 24 hrs by absorbance based analysis; format: functional, cell-based; conditions: dose 0.25-0.5 µM
[12] = Toxicity in female nude mouse assessed as drug tolerance at 5 to 10 mg/kg, ip measured after 14 days; format: organism-based; conditions: in vivo, 336 h, dose 5-10 mg/kg, time 14 day
HCC827 [13] = test: Induction of cell cycle arrest in human HCC827 cells assessed as accumulation of cells at S phase at 0.2 uM incubated for 24 hrs by PI staining based flow cytometry analysis (reference value: 26.41%); format: functional
HCC827 [14] = test: Downregulation of SDHB expression in human HCC827 cells at 0.25 to 0.5 uM; format: functional, cell-based; conditions: dose 0.25-0.5 µM
HCC827 [15] = test: Induction of apoptosis in human HCC827 cells assessed as viable cells at 1.0 uM measured after 48 hrs by annexin V and PI staining based flow cytometry analysis (reference value: 96.74%); format: functional; conditions: read-out: Activity
HCC827 [16] = test: Induction of cell cycle arrest in human HCC827 cells assessed as accumulation of cells at G2 phase at 0.4 uM incubated for 24 hrs by PI staining based flow cytometry analysis (reference value: 7.15%); format: functional
MDA-MB-231 = test: Antiproliferative activity against human MDA-MB-231 cells assessed as inhibition of cell growth measured after 72 hrs by MTT assay; format: functional, cell-based; conditions: MDA-MB-231, 72 h
HCC827 [17] = test: Induction of apoptosis in human HCC827 cells assessed as late apoptotic cells at 0.25 uM measured after 48 hrs by annexin V and PI staining based flow cytometry analysis (reference value: 1.29%); format: functional
HCC827 [18] = test: Induction of apoptosis in human HCC827 cells assessed as necrotic cells at 1 uM measured after 36 hrs by annexin V and PI staining based flow cytometry analysis (Rvb =0.84%); format: functional
HCC827 [19] = test: Induction of cell cycle arrest in human HCC827 cells assessed as increase in p53 expression level at 0.25 to 5 uM measured after 24 hrs by Western blot analysis; format: functional, cell-based; conditions: dose 0.25-5 µM
HCC827 [20] = test: Downregulation of TIMM23 expression level in human HCC827 cells at 0.5 uM incubated for 24 hrs in presence of Baf A1 by Western blot analysis; format: functional, cell-based

## Cc1ccc([P+](CCCCCCCCCCO)(c2ccc(C)cc2)c2ccc(C)cc2)cc1.[Br-]
HCC827 [1]
  Activity: Active
HCC827 [2]
  Activity: Active
HCC827 [3]
  Activity: 0.18%
Mitochondrial membrane [4]
  Activity: inactive
HCC827 [5]
  Activity: Active
BEAS-2B
  Activity: Minimal_effect
[6]
  Activity: Toxic
HCT-116
  pIC50: 6.21
HCC827 [7]
  Activity: Active
Mitochondrial membrane [8]
  Activity: inactive
HCC827 [9]
  Activity: 5.85%
Mitochondrial membrane [10]
  Activity: Dose-dependent-effect
HCC827 [11]
  Activity: Dose-dependent-effect
[12]
  Activity: Non-toxic
HCC827 [13]
  Activity: 19.35%
HCC827 [14]
  Activity: Active
HCC827 [15]
  viability at 1 µM: 82.8%
HCC827 [16]
  Activity: 4.95%
MDA-MB-231
  pIC50: 7.00
HCC827 [17]
  Activity: 3.3%
HCC827 [18]
  Activity: 0.96%
HCC827 [19]
  Activity: Active
HCC827 [20]
  Activity: inactive
